Values quoted from earlier work as cited in EP4684794A1, “TECHNICAL FORMULATION FOR ACTIVE ABSORPTION OF AMINO ACIDS BY HUMAN REPRODUCTIVE SYSTEM” (Xu, Haohan, priority 2023, dated 2024).

What was measured:
bone marrow macrophages = conditions: blocking the NF- κ B and MAPK signaling pathways
MC3T3-E1 osteoblasts = conditions: platelet-derived growth factor-BB, SAPK/JNK pathway

O=C(O[C@@H]1Cc2c(O)cc(O)cc2O[C@@H]1c1cc(O)c(O)c(O)c1)c1cc(O)c(O)c(O)c1 [EGCG, epigallocatechin gallate]
teratogenic or developmental toxicity (animal experiments): no teratogenic or developmental toxicity was observed | genotoxicity (mouse body fluid analyses): no genotoxic effects | LPS-mediated pro-inflammatory gene expression (bone marrow macrophages): may prevent LPS-mediated pro-inflammatory gene expression | expression of IL-6 and IL-6 mRNA (MC3T3-E1 osteoblasts): reducing the expression of IL-6 and IL-6 mRNA
